Assay results: patent US20170029355A1, “LABILE ESTERS OF AGROCHEMICALS FOR CONTROLLED RELEASE AND REDUCTION OF OFF-SITE MOVEMENT” (Monsanto Technology LLC, priority 2011, published 2017)

Experiments:
broadleaf weeds = assay: Control of broadleaf weeds by ester concentrates (statements of the description); type: in vivo
[1] = In vitro photo-release and hydrolytic release of dicamba in an aqueous medium (Example 35); type: physicochemical; conditions: 0.01 mM ester, 35° C.
Protocol: This Example describes the determination of photo-lability and hydrolytic lability of dicamba esters in an aqueous medium. 1 mM solutions of the esters were prepared in acetonitrile (or […] solutions of dicamba diesters). The solutions were then diluted with deionized water to a concentration of 0.01 mM (or 0.005 mM for diesters). The solutions were then transferred to quartz tubes and amber bottles and held in a growth chamber by the procedure of Example 26. A 14-hour day was generally used at a constant temperature of 35° C. Hydrolytic activity was assessed by measuring the increase in dicamba concentration after day zero in the amber (dark) bottles. […] Photolysis manifested itself as increased conversion in the quartz tubes compared to the dark control.

velvetleaf [2] = assay: Greenhouse post-emergent control of velvetleaf by emulsifiable concentrates (Example 29); type: in vivo; conditions: three weeks after treatment
Protocol: The efficacy of some photo-labile ester formulations from Example 28 for post-emergent control of velvetleaf was tested in the greenhouse. All formulations were tested at rates of 140, 280, 420, and 560 g dicamba equivalent per hectare rates and compared to the diglycolamine salt of dicamba (CLARITY®) at the same rates and untreated control plants. The velvetleaf plants were 10-15 cm in height at the time of spraying. Percent control was evaluated three weeks after treatment.

velvetleaf [3] = assay: Field testing of emulsifiable concentrates, post-emergent control (Example 38); type: in vivo
Excerpt: (§1) Four dicamba esters, 1a, 2, 9, and 13a, were formulated as emulsifiable concentrates for field testing. All formulations contained 5% each of a alkylbenzene sulfonate calcium salt (Huntsman NANSA EVM 62/H or Akzo Nobel WITCONATE P-1220 EH) and castor oil ethoxylate (Huntsman SURFONIC CO-54) as the emulsifiers and Aromatic 200 (Exxon) or monochlorobenzene (MCB) as the solvent.
(§2) The esters were compared to the diglycolamine salt of dicamba (CLARITY™) for post-emergent control of three broadleaf weeds: velvetleaf, morning glory, and hemp sesbania. Rates of 280 and 420 g dicamba acid equivalent per hectare were used. […] Evaluations were conducted at 11 or 21 days after treatment. Locations and timing were identical for all formulations tested.

hemp sesbania = assay: as above; type: in vivo
Excerpt: as §1, §2

morning glory = assay: as above; type: in vivo
Excerpt: as §1, §2

[4] = system: glyphosate-tolerant, dicamba-sensitive soy plants; assay: Humidome volatility injury to dicamba-sensitive plants (Example 31); conditions: assessed after three weeks in greenhouse
Excerpt: In this case, the diglycolamine salt of dicamba (CLARITY®) was used for comparison.
Dicamba photo-labile ester formulations from Example 28 were mixed with a commercial glyphosate formulation (ROUNDUP POWERMAX®) and diluted to provide a solution with a 0.5% dicamba equivalent concentrate of the ester (or dicamba diglycolamine salt) and 1.5% concentrate of glyphosate. The mixtures were sprayed at a 10 gallon per acre (93.5 liters per hectare) rate on soil in a plastic container (“humidome”) with a transparent lid. One soil container was sprayed with water as a control. Four glyphosate-tolerant, dicamba-sensitive soy plants between V2 and V3 stage were immediately placed on the sprayed soil and the domes attached to the trays with binder clips. The soy plants were in pots placed directly on the soil but with aluminum foil wrapped around the bottom to prevent uptake of dicamba or dicamba esters through the roots.
The closed containers were held for 24 hours in a growth chamber which was maintained at 35° C. with 40% relative humidity. The plants were then removed and grown in a greenhouse for three weeks. At this time plant injury and growth stage were assessed compared to the control treated with water only.

[5] = In vitro dicamba photo-release from photo-labile dicamba esters, tetrahydrofuran solvent (Example 26); type: physicochemical; conditions: THF, 0.1 mM ester
Protocol: This Example describes in vitro testing of dicamba photo-release by homogeneous solutions of photo-labile dicamba esters. The esters were dissolved in tetrahydrofuran (THF). Ester concentration was 0.1 mM. 25 ml of the solution was transferred to 22 mm tubes fabricated from graded seal quartz tubing with a 19/22 tapered seal at the top, which was closed with a tapered glass plug and secured with a plastic ring clamp. The solution was entirely below the quartz-to-glass transition, ensuring that the entire volume was exposed to the full spectrum.
The sealed tubes were placed in a Growth Chamber where they were exposed to simulated sunlight for 14 hours per day at 35° C. Dicamba concentrations in the solution were measured during the course of the photolysis.
A sample of the initial solution was reserved in a glass vial away from the light source and analyzed at the conclusion of the study, providing a measurement of the amount of dicamba present without illumination of the photolysis solution (the “dark control”).

[6] = 280 and 420 g dicamba acid equivalent per hectare
[7] = 280 g dicamba acid equivalent per hectare, 11 or 21 days after treatment
[8] = 420 g dicamba acid equivalent per hectare, 11 or 21 days after treatment

COc1c(Cl)ccc(Cl)c1C(=O)OCCc1ccccc1[N+](=O)[O-] [Ester 2, 2-Nitrophenethyl Ester of Dicamba]
control of a number of broadleaf weeds in field testing, in words (broadleaf weeds; emulsifiable and suspension concentrates, Sesbania macrocarpa, morning glory, velvetleaf, Palmer amaranth, fat hen, sicklepod): proven effective | field efficacy for control of broadleaf weeds compared with the diglycolamine salt of dicamba, in words (broadleaf weeds; field tests of emulsifiable concentrates): slightly more effective than the diglycolamine salt of dicamba | Conversion to Dicamba, Dark, Day 0 ([1]; amber (dark) bottle, Day 0): 3% | Conversion to Dicamba, Dark, Day 1 ([1]; amber (dark) bottle, Day 1): 3% | Conversion to Dicamba, Dark, Day 2 ([1]; amber (dark) bottle, Day 2): 3% | Conversion to Dicamba, Dark, Day 3 ([1]; amber (dark) bottle, Day 3): 3% | Conversion to Dicamba, Dark, Day 4 ([1]; amber (dark) bottle, Day 4): 3% | Conversion to Dicamba, Dark, Day 7 ([1]; amber (dark) bottle, Day 7): 3% | Conversion to dicamba, Dark, Day 10 ([1]; amber (dark) bottle, Day 10): 3% | Conversion to Dicamba, Dark, Day 14 ([1]; amber (dark) bottle, Day 14): 3% | Conversion to Dicamba, Dark, Day 21 ([1]; amber (dark) bottle, Day 21): 3% | Conversion to Dicamba, Dark, Day 28 ([1]; amber (dark) bottle, Day 28): 3% | Conversion to Dicamba, Light, Day 0 ([1]; quartz tube, 14-hour day, Day 0): 3% | Conversion to Dicamba, Light, Day 1 ([1]; quartz tube, 14-hour day, Day 1): 78% | Conversion to Dicamba, Light, Day 2 ([1]; quartz tube, 14-hour day, Day 2): 79% | Conversion to Dicamba, Light, Day 3 ([1]; quartz tube, 14-hour day, Day 3): 75% | Conversion to Dicamba, Light, Day 4 ([1]; quartz tube, 14-hour day, Day 4): 77% | Conversion to Dicamba, Light, Day 7 ([1]; quartz tube, 14-hour day, Day 7): 78% | Conversion to dicamba, Light, Day 10 ([1]; quartz tube, 14-hour day, Day 10): 84% | Conversion to Dicamba, Light, Day 14 ([1]; quartz tube, 14-hour day, Day 14): 82% | Conversion to Dicamba, Light, Day 21 ([1]; quartz tube, 14-hour day, Day 21): 83% | Conversion to Dicamba, Light, Day 28 ([1]; quartz tube, 14-hour day, Day 28): 86% | % Control of velvetleaf, 140 g/ha (velvetleaf [2]; 140 g dicamba equivalent per hectare): 50% | % Control of velvetleaf, 280 g/ha (velvetleaf [2]; 280 g dicamba equivalent per hectare): 69% | % Control of velvetleaf, 420 g/ha (velvetleaf [2]; 420 g dicamba equivalent per hectare): 78% | % Control of velvetleaf, 560 g/ha (velvetleaf [2]; 560 g dicamba equivalent per hectare): 90% | post-emergent control of velvetleaf compared with the dicamba salt, in words (velvetleaf [3]; [6]): equivalent to the dicamba salt | % control, 280 g/ha, Velvetleaf (velvetleaf [3]; [7]): 85% | % control, 420 g/ha, Velvetleaf (velvetleaf [3]; [8]): 92% | post-emergent control of hemp sesbania compared with the dicamba salt, in words (hemp sesbania; [6]): equivalent to the dicamba salt | % control, 280 g/ha, Hemp sesbania (hemp sesbania; [7]): 92% | % control, 420 g/ha, Hemp sesbania (hemp sesbania; [8]): 97% | post-emergent control of morning glory compared with the dicamba salt, in words (morning glory; [6]): equivalent to the dicamba salt | % control, 280 g/ha, Morning glory (morning glory; [7]): 94% | % control, 420 g/ha, Morning glory (morning glory; [8]): 95% | % Injury ([4]; soy plants 24 hours in closed humidome over sprayed soil (0.5% dicamba equivalent + 1.5% glyphosate), 35° C.): 13% | Growth Stage ([4]; soy plants 24 hours in closed humidome over sprayed soil): 9 | Dark Control % dicamba ([5]; initial solution kept away from the light source, analyzed at conclusion of study): 0% | Conversion to dicamba, 1 day ([5]; simulated sunlight 14 hours per day, 35° C., 1 day): 46% | Conversion to dicamba, 2 days ([5]; simulated sunlight 14 hours per day, 35° C., 2 days): 54% | Conversion to dicamba, 3 days ([5]; simulated sunlight 14 hours per day, 35° C., 3 days): 72% | Conversion to dicamba, 5 days ([5]; simulated sunlight 14 hours per day, 35° C., 5 days): 84% | Conversion to dicamba, 7 days ([5]; simulated sunlight 14 hours per day, 35° C., 7 days): 88% | Conversion to dicamba, 9 days ([5]; simulated sunlight 14 hours per day, 35° C., 9 days): 98% | Conversion to dicamba, 12 days ([5]; simulated sunlight 14 hours per day, 35° C., 12 days): 96% | Conversion to dicamba, 15 days ([5]; simulated sunlight 14 hours per day, 35° C., 15 days): 95%
